The values that follow come from patent US7396672B2, “Method for the production of dinoflagellate cultures” (priority 2003, dated 2008).

Common to all, as to format: cell-based
Test [1] concerns Cylindricus fusiformis (PCC100). Put plainly: cell proliferation assay, monoculture of phytoplankton. Particulars: 8 days. As to the method:
(§1) The effects of mimosine at low mM concentrations on pure cultures of four different groups of phytoplankton were tested. The phytoplankton tested were the Cryptophyceae Rhodomonas salina (CCMP1319), the Prymnesiophyceae Isochrysis galbana (CCMP1323), the Bacillariophyceae Cylindricus fusiformis (PCC100) and the dinoflagellate Heterocapsa triquetra (CCMP449). Cultures of phytoplankters were obtained from Bigelow Laboratory for Ocean Sciences (CCMP) or the Plymouth Culture Collection (PCC). The cultures were maintained in f/2 medium at 18° C., under photon flux of […] from fluorescent tubes (Phillips daylight) under a 14:10 hours light/dark cycle. For cell proliferation assays, exponentially growing cells were diluted ten times with fresh medium before the addition of mimosine to give cultures having a final mimosine concentration of 0.01, 0.1 and 1 mM. All chemicals were from Sigma Corporation unless otherwise stated. All growth studies were performed in triplicate. Cell counting was performed by Coulter counter and all samples were counted at least three times.

The subject of test [2] is Heterocapsa triquetra (CCMP449). The test is described as above. The conditions noted are these: 1 mM mimosine. As to the method: as §1
Test [3] relates to Isochrysis galbana (CCMP1323). Described as above. The conditions noted are these: 8 days. As to the method:
as §1

The subject of test [4] is Rhodomonas salina (CCMP1319). Described as above. The conditions noted are these: 8 days. As to the method:
as §1

Test [5] concerns diatoms. Put plainly: mixed phytoplankton in natural seawater samples. Particulars: 2 mM mimosine, 6 days, diatoms dominant group in the control. As to the method: (§2) Whether mimosine can confer an advantage in the phytoplankton community by adding mimosine directly to natural seawater samples was therefore tested. Natural seawater samples were collected from Port Shelter (eastern Hong Kong) and filtered through a 100 μm mesh to remove all zooplankton immediately before use. Mimosine was then added at 2 mM and samples were taken for estimation of the percentage of dinoflagellates and diatoms. The samples were then incubated under the same conditions as in Example 1. Within 6 days, dinoflagellates became the dominant group. The dinoflagellate population increased from 30% to 60% of the total population (FIG. 2). The diatoms, which were the dominant group in the control, decreased to 10% of the total population in 6 days (at the time of measurement) upon treatment with mimosine.

Test [6] deals with dinoflagellates. Put plainly: mixed phytoplankton in natural seawater samples. Particulars: 2 mM mimosine. As to the method: as §2
[7] abbreviates: 0.01 and 0.1 mM mimosine, f/2 medium.

In the case of `NC(Cn1ccc(=O)c(O)c1)C(=O)O` (stereo not drawn) [mimosine, α-amino-3-hydroxy-4-oxo-1-pyridine propanoic acid], the “mean cell numbers significantly lower than those in the controls” value in test [1] (1 mM mimosine) was determined as 25%; in test [4] (1 mM mimosine), 75%. In addition, the “cell number compared to control treatment” value is given as “slightly lower numbers of cells, though not significantly so” in test [1] (setting [7]); “increased the cell number significantly” in test [2]; “slightly lower numbers of cells, though not significantly so” in test [3] (setting [7]); “slightly lower numbers of cells, though not significantly so” in test [4] (setting [7]). For the same compound, in test [3] (1 mM mimosine), the cell number increase result is recorded as “no cell number increase”. For the same compound, in test [5], the “diatoms as percentage of the total population” value came out at 10%. For the same compound, the “time until dinoflagellates became the dominant group” value in test [6] (natural seawater) is recorded as at most 6 days. The “dinoflagellate population as percentage of the total population” value in test [6] (natural seawater (Port Shelter), 6 days, increased from 30%) turned out to be 60%.
